Test systems include SN12C renal; MALME-3M melanoma; A549 NSCLC; NCI-H226 lung; U251 CNS; MCF7 breast; NCI-H522 lung; 786-0 renal; K-562 leukemia; ACHN renal.
Assay in all cases: DTP human tumour cell line panel, 48 h

The source of these data is PubChem BioAssay (NCI).

Molecules are shown by their SMILES.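 48-hour exposure; five concentrations; linearly interpolated endpoints. At the GI50, growth is halved. TGI: concentration producing complete growth inhibition.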 Where only a bound is given, the exact number is not on record here.

One may read the TGI as the concentration giving total growth inhibition. Read a high TGI as less potent growth arrest. Take `O=C(N/N=C(/COc1ccc(Cl)cc1)N=Cc1cccnc1)c1ccncc1`: the TGI in the assay with SN12C renal, in the assay on MALME-3M melanoma, with A549 NSCLC, in the assay with NCI-H226 lung, in the assay on U251 CNS and with MCF7 breast was greater than 100 µM in each case. Moreover, the TGI with NCI-H522 lung is 66.7 µM; with 786-0 renal, greater than 100 µM; in the assay with K-562 leukemia it was greater than 100 µM; in the assay on ACHN renal, greater than 100 µM.

Consider `C#CCn1ncc2c(SC)ncnc21`, for which the concentration for total growth inhibition (TGI) with SN12C renal, in the assay on MALME-3M melanoma, in the assay on A549 NSCLC, in the assay on NCI-H226 lung, in the assay on U251 CNS and with MCF7 breast was greater than 100 µM in each case. The TGI in the assay with NCI-H522 lung, in the assay with 786-0 renal, in the assay with K-562 leukemia and in the assay with ACHN renal was greater than 100 µM in each case.

Turning to `OC1(c2ccc(Cl)cc2)c2c(ccc3c2OCO3)C2=NCCN21` (stereo unspecified), the TGI in the assay with SN12C renal is greater than 100 µM; with MALME-3M melanoma, 21.2 µM; in the assay on A549 NSCLC it was greater than 100 µM; in the assay with U251 CNS, greater than 100 µM; in the assay with MCF7 breast, greater than 100 µM; in the assay on 786-0 renal it was greater than 100 µM. Also, the TGI is 70.6 µM in the assay on K-562 leukemia and greater than 100 µM with ACHN renal.

As to `Cn1c(-c2cccs2)cc(-c2ccccc2)c1-c1cccs1`, the TGI is greater than 100 µM in the assay with SN12C renal; 45.7 µM in the assay with A549 NSCLC; greater than 100 µM in the assay with NCI-H226 lung; greater than 100 µM with U251 CNS; greater than 100 µM with MCF7 breast; greater than 100 µM with NCI-H522 lung. Besides, the TGI in the assay on 786-0 renal, in the assay with K-562 leukemia and in the assay on ACHN renal was greater than 100 µM each time.

As for `O=C1N(c2ccccc2)C2(c3ccccc3)CC3CCCC13S2` (stereo unspecified), the TGI with SN12C renal, with MALME-3M melanoma, in the assay on A549 NSCLC, with NCI-H226 lung, in the assay with U251 CNS and in the assay on MCF7 breast was greater than 100 µM throughout. Further, the TGI with NCI-H522 lung was 75.7 µM; with 786-0 renal, greater than 100 µM; in the assay on K-562 leukemia, greater than 100 µM; with ACHN renal it was greater than 100 µM.

For the compound `O=C(C=P(c1ccccc1)(c1ccccc1)c1ccccc1)c1cccc(-c2cccc([N+](=O)[O-])c2)c1`, the TGI with SN12C renal was greater than 100 µM; with MALME-3M melanoma, 9.28 µM; with A549 NSCLC, greater than 100 µM; in the assay on U251 CNS, greater than 100 µM; with MCF7 breast it was greater than 100 µM; with NCI-H522 lung, 4.4 µM. The TGI was greater than 100 µM in the assay on 786-0 renal, greater than 100 µM with K-562 leukemia and 15.7 µM with ACHN renal.

For the compound `COc1ccc2c(c1)CCN=C2Cc1cc(OC)c(OC)cc1CCCl`, the concentration for total growth inhibition (TGI) in the assay on SN12C renal is greater than 100 µM; in the assay on MALME-3M melanoma it was 73.8 µM; in the assay on A549 NSCLC, greater than 100 µM; with NCI-H226 lung, greater than 100 µM; in the assay with U251 CNS, greater than 100 µM; in the assay on MCF7 breast, greater than 100 µM. Moreover, the TGI in the assay with NCI-H522 lung was 60.1 µM; in the assay with K-562 leukemia, greater than 100 µM; in the assay on ACHN renal it was greater than 100 µM.

`O=Cc1cc([N+](=O)[O-])no1`: the TGI in the assay on SN12C renal was greater than 100 µM; in the assay with NCI-H226 lung, greater than 100 µM; in the assay with U251 CNS, greater than 100 µM; in the assay with MCF7 breast, 86.9 µM; in the assay with K-562 leukemia, 38.6 µM.

Regarding `Cc1cc2c(cc1Cl)SC(c1ccccc1)C(=O)NS2(=O)=O` (stereo unspecified), the TGI was greater than 100 µM in the assay on NCI-H226 lung; 60.5 µM in the assay on U251 CNS; greater than 100 µM with MCF7 breast; 59.7 µM in the assay with NCI-H522 lung; greater than 100 µM with 786-0 renal; greater than 100 µM with K-562 leukemia. Further, the TGI in the assay with ACHN renal was greater than 100 µM.

As for `N/C(=N\S(=O)(=O)c1cccc2nsnc12)Nc1ccc(Cl)cc1`, the TGI in the assay with SN12C renal was greater than 100 µM; with MALME-3M melanoma, 40.2 µM; in the assay with A549 NSCLC it was greater than 100 µM; in the assay on NCI-H226 lung, greater than 100 µM; in the assay with U251 CNS, 77.1 µM; in the assay with MCF7 breast, greater than 100 µM. Also, the TGI with NCI-H522 lung was 25.7 µM; in the assay on 786-0 renal, greater than 100 µM; in the assay on K-562 leukemia, greater than 100 µM; with ACHN renal it was greater than 100 µM.

Consider `COC(=O)c1cc2c3c(cc(N(C)C)c2[nH]1)N(C(=O)c1cc2cc(OC)c(OC)c(OC)c2[nH]1)CC3CCl` (stereo unspecified), for which the total growth inhibition concentration (TGI) is 0.384 µM in the assay on SN12C renal; less than 0.0025 µM in the assay with MALME-3M melanoma; 0.0223 µM in the assay on NCI-H226 lung; 2.42 µM in the assay on MCF7 breast; 0.0113 µM with NCI-H522 lung; 0.00487 µM in the assay on 786-0 renal. This compound yielded a TGI with K-562 leukemia of 0.788 µM.

On to `CCOC(=O)C[C@@H]1C2(C=C[C@@]13CO3)OCC(C)(C)CO2`, for which the TGI with SN12C renal, in the assay with MALME-3M melanoma, in the assay on A549 NSCLC, in the assay with NCI-H226 lung, in the assay on U251 CNS and with MCF7 breast was greater than 100 µM in each case. The same compound had a concentration for total growth inhibition (TGI) with K-562 leukemia greater than 100 µM.

Consider `Cc1ccc(NP(=O)(Oc2ccccc2)N(CCCl)CCCl)cc1` (stereo unspecified), for which the TGI in the assay on SN12C renal, with MALME-3M melanoma, in the assay with A549 NSCLC, with NCI-H226 lung, with U251 CNS and in the assay on NCI-H522 lung was greater than 100 µM throughout. Moreover, the TGI in the assay with K-562 leukemia and in the assay on ACHN renal was greater than 100 µM in each case.

With `CS(=O)(=O)OC1CN2CCC1CC2` (stereo unspecified), the TGI in the assay with SN12C renal, with MALME-3M melanoma, in the assay with A549 NSCLC, with U251 CNS, in the assay on MCF7 breast and in the assay with NCI-H522 lung was greater than 100 µM each time. Besides, the TGI with 786-0 renal, with K-562 leukemia and in the assay on ACHN renal was greater than 100 µM each time.

For orientation: GI50 means the concentration giving 50% growth inhibition. In the case of `CN(c1cc2ncc(=O)[nH]c2cc1NC(N)=NCc1ccc(Cl)cc1)C1CCCCC1`, the GI50 in the assay with SN12C renal was 7.23 µM; in the assay on MALME-3M melanoma, 8.5 µM; in the assay on A549 NSCLC, 9.11 µM; in the assay on NCI-H226 lung, 8.1 µM; in the assay on U251 CNS, 5.96 µM; in the assay with MCF7 breast it was 1.75 µM. The GI50 in the assay with NCI-H522 lung is 7.39 µM; with K-562 leukemia it was 2.38 µM; with ACHN renal it was 7.12 µM. The TGI in the assay on SN12C renal was 15.5 µM; with MALME-3M melanoma, 17.5 µM; in the assay on A549 NSCLC, 18.8 µM; with NCI-H226 lung, 18 µM; in the assay on U251 CNS, 13.4 µM; in the assay with MCF7 breast it was 7.52 µM. For the same compound, the TGI worked out at 16.1 µM in the assay on NCI-H522 lung, 9.73 µM in the assay on K-562 leukemia and 14.2 µM in the assay with ACHN renal.
